Measured values as given in patent US20030211995A1, “Methods and formulations for eradicating or alleviating staphylococcal nasal colonization using lysostaphin” (priority 2001, published 2003).
Where two headings read alike, the source gives them in different places. Marks after values point to notes of the source that are not given here. Where a SMILES comes first, the peptide text is derived from it.

Legend:
S. aureus (ATCC 49521) = assay: Lysostaphin MIC assay, outgrowth of lysostaphin resistance with or without sub-MIC bacitracin or nisin; format: cell-based; set-up: key to growth in lysostaphin MIC assay: G = Normal growth; Blank = no growth; R = resistance outgrowth as determined by addition of 20 μg/ml lysostaphin for 4 hrs following initial overnight incubation; settings: for growth in lysostaphin MIC assay: replicate rows
Protocol: When lysostaphin is tested in a standard “Minimum Inhibitory Concentration” (MIC) assay, outgrowth of S. aureus is sometime observed above the MIC for almost all strains of S. aureus examined. On further testing, these outgrowth wells are found to contain lysostaphin-resistant S. aureus with MICs many dilutions above the MIC of the parental strain. […] This Example illustrates that the addition of the antibacterial agent bacitracin, eliminates lysostaphin-resistant outgrowths in vitro, and may likewise reduce or eliminate resistant outgrowths in vivo. […] Of course, nasal formulations comprising antibacterial agents above the MIC for that particular agent are also within the scope of this invention.
In this experiment a NCCLS standard MIC is conducted with the modification of adding 0.1% BSA to the assay. Rows 1-4 are lysostaphin MICs conducted in the absence of bacitracin while rows 5-8 are lysostaphin MICs conducted in the presence of bacitracin (5 μg/ml).
(§1) Lysostaphin MIC assays were conducted in the presence or absence of subinhibitory concentrations (four-fold dilution below MIC) of either bacitracin or nisin to determine if either substance prevented the outgrowth of lysostaphin resistance in these assays. This is as previously described in Example 14, above.

[1] = test system: S. aureus strain MBT 5040; assay: MIC by microtiter dilution assay; format: cell-based
Protocol: At the same time, a Columbia agar plate containing 2% NaCl (CSA) was inoculated with S. aureus strain MBT 5040 from a frozen stock. […] The MIC of a drug for a particular bacterial strain is the minimum concentration of the drug that inhibits normal growth of that particular bacterial strain.
Any detected S. aureus after lysostaphin treatment were tested for lysostaphin resistance by microtiter dilution assay. […] Plates were prepared by making lysostaphin dilutions in cation-adjusted Mueller Hinton broth+2%NaCl and 0.1%BSA (CAMHB+). The CAMHB+2% NaCl was made first, autoclaved, and then sterile 30% BSA was added to equal 0.1% BSA concentration. BSA prevents nonspecific lysostaphin interaction with plastic. The final volume of CAMHB+ in each well was 50 μl. Dilutions were 1:2, prepared by mixing 50 μl of the previous dilution into 50 μl of fresh media. The final row on the plate was left with no lysostaphin added as a control for growth. […] Overnight cultures were diluted ˜1:1000, as determined empirically, to yield a final concentration of 5×10^5/ml by measuring the optical density at 650 nm (OD650). […] The minimal inhibitory concentration (MIC) of lysostaphin, the lowest concentration of lysostaphin that prevents normal growth, was determined by reading the OD650 on a microplate reader.
Plates were incubated at room temperature for 6 to 18 hours. The OD650 was determined.

[2] = test system: S. aureus strain MRSA 12/12; assay: Cotton rat nasal colonization model, single dose of cream; format: in vivo; settings: Table 6d; single dose of 0.5% lysostaphin cream
Protocol: To further explore the relationship between lysostaphin-resistance and nasal colonization, treatment of S. aureus strain MRSA 12/12 nasal colonization with a single dose of 0.5% lysostaphin cream was also examined. MRSA 12/12 colonized the cotton rat nares (Table 6d), and a single treatment of 0.5% lysostaphin cream also eradicated nasal colonization by this strain. Nasal supernatant from treated animals was plated on both TSA/NaCl+nafcillin and TSA/NaCl alone since when MRSA become lysostaphin-resistant they revert to MSSA (17).

SA5 USU = assay: Lysostaphin MIC assay, outgrowth of lysostaphin resistance with or without sub-MIC bacitracin or nisin; format: cell-based, S. aureus; settings: nisin or bacitracin at four-fold dilution below MIC
Protocol: as §1

SA5 Sam = assay: as above; format: cell-based, S. aureus; settings: nisin or bacitracin at four-fold dilution below MIC
Protocol: as §1

SA8 Sam = assay: as above; format: cell-based, S. aureus; settings: nisin or bacitracin at four-fold dilution below MIC
Protocol: as §1

Type 8 S. aureus (MSSA) = assay: Cotton rat nasal colonization model, single dose of cream; format: in vivo; settings: Table 6d; single dose of 0.5% lysostaphin cream
Protocol: (§2) On the day of instillation, S. aureus MBT 5040 was harvested from the CSA plate by scraping colonies into sterile. PBS (1 ml/animal to be instilled) until the percent transmittance of the sample was approximately 10% at […] in a 10 mm path length. The bacteria were pelleted by centrifugation and then resuspended in 10 μl/animal of sterile PBS. Cotton rats were sedated with 200 μl of Ketamine (25 mg/kg), Rompun (2.5 mg/kg), and Acepromazine (2.5 mg/kg) delivered intramuscularly. Ten microliters, approximately 10^9 S. aureus CFUs per animal, of MBT 5040 in PBS was instilled in the nares using a micropipette without touching the nares. Specifically, a drop of bacterial inoculum was placed on the nostril with a micropipettor, without touching the nose. The animal's regular process of respiration then inhaled the drop into the nares. After introduction of the MBT 5040 bacteria, the cotton rats were returned to normal water, without nafcillin. Unless otherwise indicated, this method was consistently used to instill S. aureus in the nares for all examples discussed below.
(§3) Ten cotton rats were nasally instilled with MBT 5040 S. aureus. On day 4 and day 5 post-instillation, the 5 animals were treated with a 0.5% lysostaphin cream and 5 animals were treated with a cream without lysostaphin added. Cream formulations were delivered into the nares of anaesthetized cotton rats by syringe through an Angiocath™ 22 GA flexible catheter (Becton Dickinson). The catheter was inserted approximately 3 mm into each of the nares and then drawn back as the cream was delivered. The noses of the cotton rats were massaged well following cream delivery to ensure good dispersal of cream. The dose of cream delivered to the nares was approximately 30-50 μl. Due to the cream's highly viscous nature, it was difficult to precisely gauge to volume of creams delivered to the nares. Unless otherwise indicated, this method of cream delivery into the nares was used throughout the examples below.
(§4) To determine the efficacy of a single dose of 0.5% lysostaphin cream in eradicating S. aureus nasal colonization, cotton rats were instilled with either MBT 5040 (MRSA), Type 5 S. aureus (sensitive to methicillin; MSSA), or Type 8 S. aureus (MSSA). Half of the animals in each group were treated once on day 5 post-instillation with negative control cream and other half of the animals were treated on the same day with 0.5% lysostaphin cream.

Type 5 S. aureus (MSSA) = assay: as above; format: in vivo; settings: Table 6d; single dose of 0.5% lysostaphin cream
Protocol: as §2, §3, §4

[3] = test system: S. aureus strain SA 3865 (mupirocin resistant); assay: as above; format: in vivo; settings: Table 6d; single dose of 0.5% lysostaphin cream
S. aureus = assay: Proteinase K neutralization of lysostaphin activity in vitro; format: cell-based; settings: 10^5 S. aureus in PBS; lysostaphin 10 mcg and/or 10 mg/ml Proteinase K; 20 minutes at room temperature
Protocol: Lysostaphin (10 mcg) was added to some samples of 10^5 S. aureus in PBS in the presence or absence of 10 mg/ml Proteinase K. The samples were incubated for 20 minutes at room temperatures and then 100 microliter aliquots were plated on blood agar.

S. aureus MBT 5040 = assay: Cotton rat model, cream instilled before instillation of bacteria (blocking of colonization); format: in vivo; settings: administered in a viscous formulation such as a cream
Protocol: To determine how long lysostaphin, when administered in a cream formulation, remains active in the nares, a single dose of 2% lysostaphin cream was instilled in cotton rat noses 48 hours, 24 hours, and 8 hours prior to instillation of 10^9 CFU of S. aureus MBT 5040. Control animals received control cream, without lysostaphin, 8 hours prior to receiving bacteria. Six days after introduction of the bacteria, each of the 5 animals per experimental group were sacrificed and the noses checked for S. aureus colonization.

MBT 5040 LysoR = assay: MIC of lysostaphin for lysostaphin-resistant variant; format: cell-based, S. aureus; settings: variant isolated in vitro
Protocol: Any detected S. aureus after lysostaphin treatment were tested for lysostaphin resistance by microtiter dilution assay. Lysostaphin was resuspended in sterile PBS, aliquotted and stored at −80° C. […] Once thawed, an aliquot of lysostaphin was stored at 4° C. and used for no more than two weeks. Plates were prepared by making lysostaphin dilutions in cation-adjusted Mueller Hinton broth+2%NaCl and 0.1%BSA (CAMHB+). The CAMHB+2% NaCl was made first, autoclaved, and then sterile 30% BSA was added to equal 0.1% BSA concentration. […] The final volume of CAMHB+ in each well was 50 μl. Dilutions were 1:2, prepared by mixing 50 μl of the previous dilution into 50 μl of fresh media. The final row on the plate was left with no lysostaphin added as a control for growth. A starting concentration of 1 μg/ml lysostaphin was used as the stock concentration. […] Overnight cultures were diluted ˜1:1000, as determined empirically, to yield a final concentration of 5×10^5/ml by measuring the optical density at 650 nm (OD650). […] The minimal inhibitory concentration (MIC) of lysostaphin, the lowest concentration of lysostaphin that prevents normal growth, was determined by reading the OD650 on a microplate reader.
Plates were incubated at room temperature for 6 to 18 hours. The OD650 was determined. […]

In the case of `CC[C@H](C)[C@H](N)C1=N[C@H](C(=O)N[C@@H](CC(C)C)C(=O)N[C@H](CCC(=O)O)C(=O)N[C@H](C(=O)N[C@H]2CCCCNC(=O)[C@H](CC(N)=O)NC(=O)[C@@H](CC(=O)O)NC(=O)[C@H](Cc3cnc[nH]3)NC(=O)[C@@H](Cc3ccccc3)NC(=O)[C@H]([C@@H](C)CC)NC(=O)[C@@H](CCCN)NC2=O)[C@@H](C)CC)CS1` [Bacitracin, bacitracin, reference compound] (HELM PEPTIDE1{[CC[C@H](C)[C@H](N)C1=N[C@H](C(=O)[*:2])CS1].L.[dE].I.K.[NCCC[C@@H](N[*:1])C(=O)[*:2]].I.[dF].H.[dD].N}$PEPTIDE1,PEPTIDE1,5:R3-11:R2$$$V2.0), the “growth in lysostaphin MIC assay” value (S. aureus (ATCC 49521); lysostaphin 0 ng/ml, bacitracin 5 μg/ml) is reported as “G^”.

With `COc1cccc(OC)c1C(=O)N[C@@H]1C(=O)N2[C@@H]1SC(C)(C)[C@@H]2C(=O)O` [methicillin, reference compound] the MIC ([1]; Staphylococcus aureus, MBT5040, read-out: MIC) was > 36 µg/mL.

For “Lysostaphin: antibacterial endopeptidase cleaving pentaglycine bridges of staphylococcal cell walls; Ambicin L (recombinant lysostaphin) used in Examples 1-10”, the “Animals Colonized/Animals Tested” value [2] was 0/5, the “Mean Colonization” value [2] was 0 and the “growth in lysostaphin MIC assay” value (S. aureus (ATCC 49521); lysostaphin 0.25 ng/ml, no bacitracin) was “G”. The “growth in lysostaphin MIC assay” value (S. aureus (ATCC 49521); lysostaphin 0.5 ng/ml, no bacitracin) was “G”, the “growth in lysostaphin MIC assay” value (S. aureus (ATCC 49521); lysostaphin 1 ng/ml, no bacitracin) was “G” and the “growth in lysostaphin MIC assay” value (S. aureus (ATCC 49521); lysostaphin 2 ng/ml, no bacitracin) was “R”. The “growth in lysostaphin MIC assay” value (S. aureus (ATCC 49521); lysostaphin 4 ng/ml, no bacitracin) was “R^3 and R^”, the “growth in lysostaphin MIC assay” value (S. aureus (ATCC 49521); lysostaphin 8 ng/ml, no bacitracin) was “R” and the “growth in lysostaphin MIC assay” value (S. aureus (ATCC 49521); lysostaphin 16 ng/ml, no bacitracin) was “R”. For the same molecule, the “growth in lysostaphin MIC assay” value (S. aureus (ATCC 49521); lysostaphin 32 ng/ml, no bacitracin) was “R”, the “growth in lysostaphin MIC assay” value (S. aureus (ATCC 49521); lysostaphin 125 ng/ml, no bacitracin) was “R” and the “growth in lysostaphin MIC assay” value (S. aureus (ATCC 49521); lysostaphin 250 ng/ml, no bacitracin) was “R”. For the same molecule, the “Percentage of wells above lysostaphin MIC that have outgrowth of lysostaphin-resistance” value (“Percentage” below) (S. aureus (ATCC 49521); nisin or bacitracin at four-fold dilution below MIC) was 31^a %, the “Percentage” value (SA5 USU) was 14% and the “Percentage” value (SA5 Sam) was 18%. The “Percentage” value (SA8 Sam) was 58%, the “Animals Colonized/Animals Tested” value (Type 8 S. aureus (MSSA)) was 0/5 and the “Mean Colonization” value (Type 8 S. aureus (MSSA)) was 0. The “Animals Colonized/Animals Tested” value (Type 5 S. aureus (MSSA)) was 0/5, the “Mean Colonization” value (Type 5 S. aureus (MSSA)) was 0 and the “Animals Colonized/Animals Tested” value [3] was 0/5. For the same molecule, the “Mean Colonization” value [3] was 0, the “CFUs Recovered” value (S. aureus) was 0 CFUs and the MIC [1] was 0.064 µg/mL. The “time lysostaphin remains active in the nares after administration” value (S. aureus MBT 5040) was “at least 48 hours” and the MIC (MBT 5040 LysoR) was > 32 µg/mL.
